Measured values reported in ChEMBL document CHEMBL1201862, “PubChem BioAssay data set” (2004).
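Method: 48-hour compound exposure of cells in 96-well plates, five concentrations, linear interpolation of endpoints. GI50: concentration for 50% inhibition of growth.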 Calls of active or inactive are those of the source. Cut-off read from the data, not from the text of the source: active = GI50 up to about 1.1 µM and inactive = higher.

Columns and labels:
Test in all cases: growth of human tumour cells (NCI), 48 h
CAKI-1 = test system: CAKI-1
HCC 2998 = test system: HCC 2998
HL-60 = test system: HL-60
IGROV-1 = test system: IGROV-1
LOX IMVI = test system: LOX IMVI
M14 = test system: M14
NCI-H23 = test system: NCI-H23
RPMI-8226 = test system: RPMI-8226
SF-539 = test system: SF-539
SK-MEL-2 = test system: SK-MEL-2
SNB-19 = test system: SNB-19
SNB-75 = test system: SNB-75
SW-620 = test system: SW-620
UACC-257 = test system: UACC-257

Row | SMILES | GI50 (CAKI-1) | GI50 (HCC 2998) | GI50 (HL-60) | GI50 (IGROV-1) | GI50 (LOX IMVI) | GI50 (M14) | GI50 (NCI-H23) | GI50 (RPMI-8226) | GI50 (SF-539) | GI50 (SK-MEL-2) | GI50 (SNB-19) | GI50 (SNB-75) | GI50 (SW-620) | GI50 (UACC-257)
1 | CCCCCCCCCCCC(=O)C1=C(O)CC(O)CC1=O (stereo unspecified) | > 100 µM (inactive) | > 100 µM (inactive) | 23.1 µM (inactive) | > 100 µM (inactive) | 54.6 µM (inactive) | > 100 µM (inactive) | > 100 µM (inactive) | 87.3 µM (inactive) | > 100 µM (inactive) | > 100 µM (inactive) | > 100 µM (inactive) | > 100 µM (inactive) | > 100 µM (inactive) | > 100 µM (inactive)
2 | CCN(CC)CCCC(C)Nc1c(Sc2cnc3cc(Cl)ccc3c2NC(C)CCCN(CC)CC)cnc2cc(Cl)ccc12 (stereo unspecified) | 1.53 µM (inactive) | 0.269 µM (active) | 1.82 µM (inactive) | 1.87 µM (inactive) | 1.78 µM (inactive) | 1.81 µM (inactive) | 3.3 µM (inactive) | 1.91 µM (inactive) |  | 1.85 µM (inactive) |  | 1.51 µM (inactive) | 1.58 µM (inactive) | 2.03 µM (inactive)
3 | CC(C)CN1CC(C)C(=O)NC1=O (stereo unspecified) | > 100 µM (inactive) |  | > 100 µM (inactive) |  | > 100 µM (inactive) |  | > 100 µM (inactive) |  | > 100 µM (inactive) | > 100 µM (inactive) | > 100 µM (inactive) |  | > 100 µM (inactive) | > 100 µM (inactive)
4 | O=c1cc2ccccc2nn1Cc1cccc(Cl)c1 | > 100 µM (inactive) | > 100 µM (inactive) |  | > 100 µM (inactive) | > 100 µM (inactive) | > 100 µM (inactive) | 57.3 µM (inactive) | 30.7 µM (inactive) | > 100 µM (inactive) | > 100 µM (inactive) | > 100 µM (inactive) | 32.7 µM (inactive) | 92.5 µM (inactive) | > 100 µM (inactive)
5 | CC1=CC=NN2C(=O)[C@H](C)C2C1 (stereo partly specified) |  | > 100 µM (inactive) | > 100 µM (inactive) | > 100 µM (inactive) | > 100 µM (inactive) | > 100 µM (inactive) | > 100 µM (inactive) | > 100 µM (inactive) | > 100 µM (inactive) | > 100 µM (inactive) | > 100 µM (inactive) | > 100 µM (inactive) | > 100 µM (inactive) | > 100 µM (inactive)
6 | Cc1ccc(S(=O)(=O)C(CC(=O)N2CCCC2)C(=O)c2ccccc2)cc1 (stereo unspecified) | 46.9 µM (inactive) | > 100 µM (inactive) | 19.5 µM (inactive) | > 100 µM (inactive) | 44.5 µM (inactive) | > 100 µM (inactive) | > 100 µM (inactive) |  | > 100 µM (inactive) |  | > 100 µM (inactive) | 80.2 µM (inactive) | 37.7 µM (inactive) | > 100 µM (inactive)
7 | N#COc1ccc(Oc2ccccc2)cc1 | 77.6 µM (inactive) | 55.5 µM (inactive) | 26.3 µM (inactive) | 68.4 µM (inactive) | 23.1 µM (inactive) | 58.7 µM (inactive) | 39.4 µM (inactive) | 30.4 µM (inactive) | 26.8 µM (inactive) | 74.3 µM (inactive) | > 100 µM (inactive) | 39.8 µM (inactive) |  | > 100 µM (inactive)
8 | CC(=O)OC1(C#N)CC2OC1C1C2N1C(=O)OC(C)(C)C (stereo unspecified) | > 100 µM (inactive) | > 100 µM (inactive) | > 100 µM (inactive) | > 100 µM (inactive) | > 100 µM (inactive) | > 100 µM (inactive) | > 100 µM (inactive) | > 100 µM (inactive) | > 100 µM (inactive) | > 100 µM (inactive) | > 100 µM (inactive) | > 100 µM (inactive) | > 100 µM (inactive) | 
9 | COc1ccc2c3c1C(=O)CCCC3CO2 (stereo unspecified) |  | > 100 µM (inactive) | > 100 µM (inactive) | > 100 µM (inactive) | > 100 µM (inactive) | > 100 µM (inactive) | > 100 µM (inactive) | > 100 µM (inactive) | > 100 µM (inactive) | > 100 µM (inactive) | > 100 µM (inactive) | > 100 µM (inactive) | > 100 µM (inactive) | > 100 µM (inactive)
10 | CN(C)c1ccc(/C=c2/sc3nc(=O)c(-c4ccccc4NC(=O)C(F)(F)F)nn3c2=O)cc1 | > 100 µM (inactive) | > 100 µM (inactive) |  | > 100 µM (inactive) | > 100 µM (inactive) | > 100 µM (inactive) | 67.6 µM (inactive) |  | > 100 µM (inactive) | > 100 µM (inactive) | > 100 µM (inactive) | > 100 µM (inactive) | > 100 µM (inactive) | 
11 | Cc1c2cc[n+](C)cc2c(C)c2c1[nH]c1ccc(OCC(F)(F)F)cc12 | 8.34 µM (inactive) | 5.05 µM (inactive) |  | 2.27 µM (inactive) |  |  | 1.23 µM (inactive) |  | 1.25 µM (inactive) | 3.4 µM (inactive) | 0.817 µM (active) |  | 3.35 µM (inactive) | 
